Experimental findings from patent US20050215544A1, “Methods of treating HIV infection” (priority 2004, published 2005) are described below.

For data set [1], the system named is HIV-1 LAI. The data set can be described thus: microbe, parasite or virus in culture. As for the experimental part:
(§1) Virus and cell lines. The T-cell lines, MT-2 and PM-1 were obtained through the AIDS Research and Reference Reagent Program, NIAID, and were contributed by Dr. D. Richman and Dr. R. Gallo, respectively. Both cell lines were cultured in RPMI 1640 medium supplemented with 10% fetal bovine serum, 2 mM L-glutamine and sub-cultured twice a week. The LAI strain of HIV-1 was obtained from the Fred Hutchinson Cancer Research Center, and the Bal strain was from NIH. Both virus stocks were amplified and titered in MT-2 cells (LAI) and PM-1 cells (Bal) using a virus infectivity assay.
(§2) Drug Susceptibility and Cytotoxicity Assays. For drug susceptibility assays, MT-2 cells were infected with HIV-1 LAI (or PM-1 cells with HIV-1 Bal) at an MOI of 0.005, and seeded into 96-well microtiter plates ([…] cells/ml) containing serial dilutions of test compounds. […] Each drug ratio consisted of an array of 3-fold serial dilutions, and was performed in quadruplicate. The plates were incubated at 37° C./5% CO2. The MT-2 cells infected with HIV-1 LAI were incubated for 5 days. On day-five post-infection, 20 μl from each well was harvested and quantitated by a reverse transcriptase (RT) assay, or in samples involving non-nucleoside RT inhibitors, an MTS assay. The PM-1 cells infected with HIV-1 Bal and used for studying the combinations with CCR5 inhibitors were incubated for six days. On day-six post-infection, 20 μl from each well was harvested, 20- and 50-fold diluted and quantitated by p24 assay. Cytotoxicity assays were performed using uninfected cells, exposed to the same drug combinations, and incubated for six days. Cell viability was determined by an MTS assay. The CC50 values were calculated by using the exponential form of the median effect equation as mentioned below for calculation of EC50.
(§3) In this equation, Fa stands for “fraction affected,” and represents the fraction of the viral load that has been inactivated. […] ED50 is drug concentration that is expected to reduce the amount of virus by 50%, and m is a parameter that reflects the slope of the concentration-response curve.
In carrying out the combination experiments below, the EC50 for Compound 1 and each comparator compound was determined during the course of each study, and used in the subsequent data analysis.

The subject of data set [2] is HIV-1 LAI. The data set can be described thus: Two-drug combination antiviral assay with Compound 1 (combination indices, Chou and Rideout). The format is cell-based. The note with it: combination with Compound 1; for Combination Indices at 50% HIV Inhibition (Confidence Interval) / Combination Indices at 75% HIV Inhibition (Confidence Interval) / Combination Indices at 90% HIV Inhibition (Confidence Interval): 95% CI in parenthesis; for Overall Result of two-drug combination: all ratios and inhibition levels. The procedure: as §1, §2
Analysis of Drug Combination Effects. For determination of CI values, drugs were diluted in a fixed ratio and multiple ratios were analyzed. The drug serial dilutions spanned a range of concentrations near the EC50 value of each compound, so that equivalent antiviral activities could be compared. Concentration-response curves were estimated for each individual drug and every combination using the median-effect equation. The equation was fit using a nonlinear regression routine (Proc Nlin) in PC SAS version 8.01 (SAS Institute Inc., SAS Version 8.01, Cary, NC: SAS Institute Inc., 1990).
as §3
To assess antiviral effects of different drug combination treatments, combination indices (CIs) were calculated according to Chou and Rideout. The combination index was computed as CI=[D]1/[Dm]1+[D]2/[Dm]2
In this equation [Dm]1 and [Dm]2 are the concentrations of drugs that would individually produce a specific level of effect, while [D]1 and [D]2 are the concentrations of drugs in combination that would produce the same level of effect.
Theoretically, additivity is implied if the CI is equal to one, synergy if the CI is less than one, and antagonism if the CI is greater than one. […] At best, we can construct a range that contains the likely values for the CI, given the noise in the data. In this report, these ranges are reported in parentheses next to each point estimate of the CI. […] If the range fell entirely above 1.0, we would infer antagonistic behavior. If the range were to include 1.0, we would infer additivity.

For another data set, the system named is uninfected cells. Description: Cytotoxicity assay of the drug combinations in uninfected cells (MTS). Conditions: combination with Compound 1 at highest concentrations tested, six days. The format is cell-based. As for the experimental part:
Drug Susceptibility and Cytotoxicity Assays. […] Each drug ratio consisted of an array of 3-fold serial dilutions, and was performed in quadruplicate. The plates were incubated at 37° C./5% CO2. […] On day-five post-infection, 20 μl from each well was harvested and quantitated by a reverse transcriptase (RT) assay, or in samples involving non-nucleoside RT inhibitors, an MTS assay. The PM-1 cells infected with HIV-1 Bal and used for studying the combinations with CCR5 inhibitors were incubated for six days. On day-six post-infection, 20 μl from each well was harvested, 20- and 50-fold diluted and quantitated by p24 assay. Cytotoxicity assays were performed using uninfected cells, exposed to the same drug combinations, and incubated for six days. Cell viability was determined by an MTS assay. The CC50 values were calculated by using the exponential form of the median effect equation as mentioned below for calculation of EC50.

Where [3] appears, read: MT-2 cells infected with HIV-1 LAI, MOI 0.005, 5 days, single drug.
Where [4] appears, read: EC50 ratio 1:1 (Compound 1 to comparator).
Where [5] appears, read: EC50 ratio 1:2.5 (Compound 1 to comparator).
The mark [6] stands for this setting: EC50 ratio 2.5:1 (Compound 1 to comparator).
Where [7] appears, read: Human immunodeficiency virus 1, MT2, 120 h.

As to enfuvirtide, in the data set with HIV-1 LAI [1] (setting [3]), the EC50 (usually the concentration giving half of the maximal effect) was found to be 6 nM. Moreover, the “Combination Indices at 50% HIV Inhibition (Confidence Interval)” value is listed as 0.17 (0.13, 0.21) with HIV-1 LAI [2] (setting [4]); 0.14 (0.11, 0.18) in the data set on HIV-1 LAI [2] (setting [5]); 0.26 (0.21, 0.31) in the data set with HIV-1 LAI [2] (setting [6]). In addition, the “Combination Indices at 75% HIV Inhibition (Confidence Interval)” value in the data set on HIV-1 LAI [2] (setting [4]) is reported as 0.42 (0.29, 0.55); in the data set with HIV-1 LAI [2] (setting [5]), 0.30 (0.21, 0.39); in the data set on HIV-1 LAI [2] (setting [6]), 0.46 (0.34, 0.58). The “Combination Indices at 90% HIV Inhibition (Confidence Interval)” value in the data set with HIV-1 LAI [2] (setting [4]) is given as 1.03 (0.49, 1.58); in the data set with HIV-1 LAI [2] (setting [5]) it was 0.65 (0.32, 0.97); with HIV-1 LAI [2] (setting [6]), 0.82 (0.46, 1.18). The “Overall Result of two-drug combination” value in the data set on HIV-1 LAI [2] is “Moderate-”; in the data set with HIV-1 LAI [2] (listed as enfuvurtide), “moderate synergistic”. For the same compound, the “Cytotoxicity of the drug combination” value with uninfected cells is “No significant cytotoxicity”.

Consider `c1cc(CN2CCCNCCNCCCNCC2)ccc1CN1CCCNCCNCCCNCC1` [AMD-3100], for which the EC50 with HIV-1 LAI [1] (setting [7]) turned out to be 4 nM. In the data set on HIV-1 LAI [2] (setting [4]), the “Combination Indices at 50% HIV Inhibition (Confidence Interval)” value is listed as 0.51 (0.34, 0.69); the “Combination Indices at 75% HIV Inhibition (Confidence Interval)” value was 0.63 (0.33, 0.94); the “Combination Indices at 90% HIV Inhibition (Confidence Interval)” value is 0.89 (0.22, 1.57). For the same compound, in the data set on HIV-1 LAI [2] (setting [5]), the “Combination Indices at 50% HIV Inhibition (Confidence Interval)” value is 0.65 (0.49, 0.80); the “Combination Indices at 75% HIV Inhibition (Confidence Interval)” value is listed as 0.55 (0.37, 0.74); the “Combination Indices at 90% HIV Inhibition (Confidence Interval)” value is 0.58 (0.27, 0.89). Besides, in the data set with HIV-1 LAI [2] (setting [6]), the “Combination Indices at 50% HIV Inhibition (Confidence Interval)” value is reported as 0.56 (0.38, 0.73); the “Combination Indices at 75% HIV Inhibition (Confidence Interval)” value was 0.62 (0.18, 0.90); the “Combination Indices at 90% HIV Inhibition (Confidence Interval)” value was 0.74 (0.22, 1.26). Besides, the “Overall Result of two-drug combination” value with HIV-1 LAI [2] is listed as “moderate synergistic”. For the same compound, the “Cytotoxicity of the drug combination” value in the data set on uninfected cells is listed as “No significant cytotoxicity”.

For the compound `C[C@H](Cn1cnc2c(N)ncnc21)OCP(=O)(O)O` [Tenofovir], the EC50 with HIV-1 LAI [1] (setting [3]) was found to be 13 nM. In the data set with HIV-1 LAI [2] (setting [4]), the “Combination Indices at 50% HIV Inhibition (Confidence Interval)” value is 0.11 (0.09, 0.13); the “Combination Indices at 75% HIV Inhibition (Confidence Interval)” value is 0.22 (0.17, 0.27); the “Combination Indices at 90% HIV Inhibition (Confidence Interval)” value is reported as 0.54 (0.31, 0.76). Also, in the data set with HIV-1 LAI [2] (setting [5]), the “Combination Indices at 50% HIV Inhibition (Confidence Interval)” value is listed as 0.13 (0.11, 0.15); the “Combination Indices at 75% HIV Inhibition (Confidence Interval)” value is 0.23 (0.18, 0.28); the “Combination Indices at 90% HIV Inhibition (Confidence Interval)” value is 0.50 (0.30, 0.70). In addition, in the data set on HIV-1 LAI [2] (setting [6]), the “Combination Indices at 50% HIV Inhibition (Confidence Interval)” value is recorded as 0.16 (0.13, 0.19); the “Combination Indices at 75% HIV Inhibition (Confidence Interval)” value is reported as 0.22 (0.17, 0.28); the “Combination Indices at 90% HIV Inhibition (Confidence Interval)” value is listed as 0.38 (0.22, 0.54). Also, the “Overall Result of two-drug combination” value in the data set on HIV-1 LAI [2] was “Synergistic”.

For `CON(Cc1ccc(F)cc1)C(=O)C=C(O)C(=O)O` [Compound 2, 3-[(4-Fluorobenzyl)methoxycarbamoyl]-2-hydroxyacrylic acid], the EC50 in the data set on HIV-1 LAI [1] (setting [7]) was 84 nM. In addition, in the data set on HIV-1 LAI [2] (setting [4]), the “Combination Indices at 50% HIV Inhibition (Confidence Interval)” value is listed as 0.42 (0.32, 0.52); the “Combination Indices at 75% HIV Inhibition (Confidence Interval)” value is 0.49 (0.33, 0.64); the “Combination Indices at 90% HIV Inhibition (Confidence Interval)” value is listed as 0.57 (0.28, 0.85). Besides, in the data set with HIV-1 LAI [2] (setting [5]), the “Combination Indices at 50% HIV Inhibition (Confidence Interval)” value is on record as 0.38 (0.30, 0.46); the “Combination Indices at 75% HIV Inhibition (Confidence Interval)” value was 0.42 (0.30, 0.55); the “Combination Indices at 90% HIV Inhibition (Confidence Interval)” value is 0.48 (0.26, 0.69). Also, in the data set with HIV-1 LAI [2] (setting [6]), the “Combination Indices at 50% HIV Inhibition (Confidence Interval)” value was 0.46 (0.34, 0.59); the “Combination Indices at 75% HIV Inhibition (Confidence Interval)” value is given as 0.66 (0.41, 0.92); the “Combination Indices at 90% HIV Inhibition (Confidence Interval)” value is reported as 0.96 (0.37, 1.54). The “Overall Result of two-drug combination” value with HIV-1 LAI [2] was “Synergistic”. Also, the “Cytotoxicity of the drug combination” value in the data set on uninfected cells is “No significant cytotoxicity”.

On to `Nc1ccn([C@H]2CC[C@@H](CO)O2)c(=O)n1` [Zalcitabine], for which, in the data set with HIV-1 LAI [1] (setting [7]), the EC50 is 12 nM. Also, the “Combination Indices at 50% HIV Inhibition (Confidence Interval)” value in the data set with HIV-1 LAI [2] (setting [4]) is 0.19 (0.15, 0.23); in the data set on HIV-1 LAI [2] (setting [5]) it was 0.38 (0.31, 0.45); with HIV-1 LAI [2] (setting [6]), 0.22 (0.18, 0.25). Moreover, the “Combination Indices at 75% HIV Inhibition (Confidence Interval)” value is recorded as 0.35 (0.26, 0.45) in the data set with HIV-1 LAI [2] (setting [4]); 0.37 (0.28, 0.47) in the data set with HIV-1 LAI [2] (setting [5]); 0.28 (0.22, 0.34) with HIV-1 LAI [2] (setting [6]). Also, the “Combination Indices at 90% HIV Inhibition (Confidence Interval)” value is given as 0.75 (0.40, 1.09) in the data set on HIV-1 LAI [2] (setting [4]); 0.42 (0.24, 0.61) with HIV-1 LAI [2] (setting [5]); 0.38 (0.24, 0.52) in the data set on HIV-1 LAI [2] (setting [6]). In the data set with HIV-1 LAI [2], the “Overall Result of two-drug combination” value is reported as “Synergistic”.

For the compound `Cc1cn([C@H]2C=C[C@@H](CO)O2)c(=O)[nH]c1=O` [Stavudine], the EC50 in the data set on HIV-1 LAI [1] (setting [7]) is 318 nM. Further, in the data set on HIV-1 LAI [2] (setting [4]), the “Combination Indices at 50% HIV Inhibition (Confidence Interval)” value is 0.25 (0.18, 0.33); the “Combination Indices at 75% HIV Inhibition (Confidence Interval)” value is recorded as 0.53 (0.32, 0.74); the “Combination Indices at 90% HIV Inhibition (Confidence Interval)” value is 1.12 (0.38, 1.86). In the data set with HIV-1 LAI [2] (setting [5]), the “Combination Indices at 50% HIV Inhibition (Confidence Interval)” value is 0.14 (0.10, 0.19); the “Combination Indices at 75% HIV Inhibition (Confidence Interval)” value is on record as 0.22 (0.13, 0.32); the “Combination Indices at 90% HIV Inhibition (Confidence Interval)” value is 0.36 (0.10, 0.62). In the data set with HIV-1 LAI [2] (setting [6]), the “Combination Indices at 50% HIV Inhibition (Confidence Interval)” value is reported as 0.28 (0.24, 0.32); the “Combination Indices at 75% HIV Inhibition (Confidence Interval)” value is listed as 0.39 (0.32, 0.47); the “Combination Indices at 90% HIV Inhibition (Confidence Interval)” value was 0.55 (0.38, 0.73). Further, the “Overall Result of two-drug combination” value in the data set with HIV-1 LAI [2] is given as “Moderate-”.
